# Experiments:
# inhibin B = experiment: Example 3 study in hypogonadal men: serum inhibin B (ITT); type: in vivo, human; conditions: for Inhibin B % Change from Baseline to Week 4, Median / Inhibin B % Change from Baseline to Week 4, Min / Inhibin B % Change from Baseline to Week 4, Max / Inhibin B % Change from Baseline to Week 4, Mean ± SD: Week 4, (Week minus Baseline) divided by Baseline; for Inhibin B % Change from Baseline to Week 4, Median / Inhibin B % Change from Baseline to Week 4, Min / Inhibin B % Change from Baseline to Week 6, Max / Inhibin B % Change from Baseline to Week 6, Mean ± SD / Inhibin B % Change from Baseline to Week 6, Median / Inhibin B % Change from Baseline to Week 6, Min / Inhibin B % Change from Baseline to Week 2, Max / Inhibin B % Change from Baseline to Week 2, Mean ± SD / Inhibin B % Change from Baseline to Week 2, Median / Inhibin B % Change from Baseline to Week 2, Min / Inhibin B % Change from Baseline to Week 4, Max / Inhibin B % Change from Baseline to Week 4, Mean ± SD: LOCF; for Inhibin B % Change from Baseline to Week 6, Max / Inhibin B % Change from Baseline to Week 6, Mean ± SD / Inhibin B % Change from Baseline to Week 6, Median / Inhibin B % Change from Baseline to Week 6, Min: Week 6, (Week minus Baseline) divided by Baseline; for Inhibin B % Change from Baseline to Week 2, Max / Inhibin B % Change from Baseline to Week 2, Mean ± SD / Inhibin B % Change from Baseline to Week 2, Median / Inhibin B % Change from Baseline to Week 2, Min: Week 2, (Week minus Baseline) divided by Baseline
# Procedure: (§1) A randomized, double-blind, placebo controlled, parallel-group study of once-daily doses of fispemifene (100, 200, and 300 mg/day) given for 4 weeks was conducted in a population of hypogonadal men. Subjects were required to meet all of the following inclusion criteria at screening and prior to randomization to be eligible for the study:
# (§2) There were 77 subjects total. The number of subjects randomized to the 100 mg fispemifene, 200 mg fispemifene, 300 mg fispemifene, and placebo arms were 21, 21, 19, and 16, respectively.
# (§3) Subjects were randomly assigned to one of four treatment groups in a 1:1:1:1 ratio: • Treatment A (100 mg): fispemifene 100 mg+placebo+placebo; • Treatment B (200 mg): fispemifene 100 mg+fispemifene 100 mg+placebo; • Treatment C (300 mg): fispemifene 100 mg+fispemifene 100 mg+fispemifene 100 mg; and • Treatment D (Placebo): placebo+placebo+placebo.
# (§4) Subjects took one dose (three capsules) of study medication once a day at home for 4 weeks. Capsules were to be taken in the morning immediately after breakfast, with the exception of the morning of the Week 4 visit. Capsules were not to be taken on the morning of the Week 4 visit because trough plasma levels of fispemifene were determined by a blood sample taken at this visit. Each subject was randomly assigned to treatment with one of the 3 different dose regimens of fispemifene or placebo vehicle. Each subject received a 4 week supply of study drug.
# (§5) Blood samples were taken from the subjects within 1 week prior to dosing with study drug to establish baseline values; after 2 and 4 weeks of randomization; and 2 weeks after the last dose of study drug. Serum was prepared from those samples and used to determine the mean % change from baseline in total testosterone, free testosterone, SHBG (sex hormone-binding globulin), DHT (dihydrotestosterone), E2 (estradiol), LH (luteinizing hormone), FSH (follicle stimulating hormone), and inhibin B.
# (§6) 3. Percent change from baseline in SHBG, DHT, E2, LH, FSH, inhibin B, and testosterone/E2 ratio at Weeks 2, 4, and 6.
# [1] = tested on: SHBG (sex hormone-binding globulin); experiment: Example 3 study in hypogonadal men: serum sex hormone binding globulin (ITT); type: in vivo, human; conditions: Baseline (Visit 2)
# Procedure: as §1, §2, §3, §4, §5, §6
smiles,measurement,setting,value
"OCCOCCOc1ccc(/C(=C(/CCCl)c2ccccc2)c2ccccc2)cc1 [Fispemifene, (Z)-2-{2-[4-(4-Chloro-1,2-diphenylbut-1-enyl)phenoxy]ethoxy}ethanol]","Inhibin B % Change from Baseline to Week 4, Median",inhibin B; 100 mg,0.09
same,"Inhibin B % Change from Baseline to Week 4, Min",inhibin B; 100 mg,−0.61
same,"Inhibin B % Change from Baseline to Week 6, Max",inhibin B; 100 mg,1.40
same,"Inhibin B % Change from Baseline to Week 6, Mean ± SD",inhibin B; 100 mg,0.41 ± 0.572
same,"Inhibin B % Change from Baseline to Week 6, Median",inhibin B; 100 mg,0.29
same,"Inhibin B % Change from Baseline to Week 6, Min",inhibin B; 100 mg,−0.41
same,"Inhibin B Actual Value at Baseline (Visit 2), Max",inhibin B; 100 mg,191.0 pg/mL
same,"Inhibin B Actual Value at Baseline (Visit 2), Mean ± SD",inhibin B; 100 mg,95.1 ± 46.32 pg/mL
same,"Inhibin B Actual Value at Baseline (Visit 2), Median",inhibin B; 100 mg,89.0 pg/mL
same,"Inhibin B Actual Value at Baseline (Visit 2), Min",inhibin B; 100 mg,22.0 pg/mL
same,"Inhibin B % Change from Baseline to Week 2, Max",inhibin B; 200 mg,1.48
same,"Inhibin B % Change from Baseline to Week 2, Mean ± SD",inhibin B; 200 mg,039 ± 0.534
same,"Inhibin B % Change from Baseline to Week 2, Median",inhibin B; 200 mg,0.21
same,"Inhibin B % Change from Baseline to Week 2, Min",inhibin B; 200 mg,−0.22
same,"Inhibin B % Change from Baseline to Week 4, Max",inhibin B; 200 mg,3.40
same,"Inhibin B % Change from Baseline to Week 4, Mean ± SD",inhibin B; 200 mg,0.42 ± 0.862
same,"Inhibin B % Change from Baseline to Week 4, Median",inhibin B; 200 mg,0.12
same,"Inhibin B % Change from Baseline to Week 4, Min",inhibin B; 200 mg,−0.44
same,"Inhibin B % Change from Baseline to Week 6, Max",inhibin B; 200 mg,2.00
same,"Inhibin B % Change from Baseline to Week 6, Mean ± SD",inhibin B; 200 mg,0.40 ± 0.628
same,"Inhibin B % Change from Baseline to Week 6, Median",inhibin B; 200 mg,0.22
same,"Inhibin B % Change from Baseline to Week 6, Min",inhibin B; 200 mg,−0.34
same,"Inhibin B Actual Value at Baseline (Visit 2), Max",inhibin B; 200 mg,220.0 pg/mL
same,"Inhibin B Actual Value at Baseline (Visit 2), Mean ± SD",inhibin B; 200 mg,105.6 ± 59.43 pg/mL
same,"Inhibin B Actual Value at Baseline (Visit 2), Median",inhibin B; 200 mg,95.0 pg/mL
same,"Inhibin B Actual Value at Baseline (Visit 2), Min",inhibin B; 200 mg,16.0 pg/mL
same,"Inhibin B % Change from Baseline to Week 2, Max",inhibin B; 300 mg,0.97
same,"Inhibin B % Change from Baseline to Week 2, Mean ± SD",inhibin B; 300 mg,0.12 ± 0.400
same,"Inhibin B % Change from Baseline to Week 2, Median",inhibin B; 300 mg,0.05
same,"Inhibin B % Change from Baseline to Week 2, Min",inhibin B; 300 mg,−0.42
same,"Inhibin B % Change from Baseline to Week 4, Max",inhibin B; 300 mg,0.878
same,"Inhibin B % Change from Baseline to Week 4, Mean ± SD",inhibin B; 300 mg,0.016 ± 0.2904
same,"Inhibin B % Change from Baseline to Week 4, Median",inhibin B; 300 mg,−0.012
same,"Inhibin B % Change from Baseline to Week 4, Min",inhibin B; 300 mg,−0.459
same,"Inhibin B % Change from Baseline to Week 6, Max",inhibin B; 300 mg,0.645
same,"Inhibin B % Change from Baseline to Week 6, Mean ± SD",inhibin B; 300 mg,0.004 ± 0.3349
same,"Inhibin B % Change from Baseline to Week 6, Median",inhibin B; 300 mg,−0.057
same,"Inhibin B % Change from Baseline to Week 6, Min",inhibin B; 300 mg,−0.493
same,"Inhibin B Actual Value at Baseline (Visit 2), Max",inhibin B; 300 mg,334.0 pg/mL
same,"Inhibin B Actual Value at Baseline (Visit 2), Mean ± SD",inhibin B; 300 mg,127.3 ± 75.76 pg/mL
same,"Inhibin B Actual Value at Baseline (Visit 2), Median",inhibin B; 300 mg,128.0 pg/mL
same,"Inhibin B Actual Value at Baseline (Visit 2), Min",inhibin B; 300 mg,16.0 pg/mL
same,"Sex Hormone Binding Globulin, Max",[1]; 100 mg/day,35.0 nmol/L
same,"Sex Hormone Binding Globulin, Mean ± SD",[1]; 100 mg/day,18.4 ± 6.96 nmol/L
same,"Sex Hormone Binding Globulin, Median",[1]; 100 mg/day,17.0 nmol/L
same,"Sex Hormone Binding Globulin, Min",[1]; 100 mg/day,8.5 nmol/L
same,"Sex Hormone Binding Globulin, Max",[1]; 200 mg/day,51.0 nmol/L
same,"Sex Hormone Binding Globulin, Mean ± SD",[1]; 200 mg/day,19.5 ± 11.12 nmol/L
same,"Sex Hormone Binding Globulin, Median",[1]; 200 mg/day,18.0 nmol/L
same,"Sex Hormone Binding Globulin, Min",[1]; 200 mg/day,3.7 nmol/L
same,"Sex Hormone Binding Globulin, Max",[1]; 300 mg/day,48.0 nmol/L
same,"Sex Hormone Binding Globulin, Mean ± SD",[1]; 300 mg/day,20.0 ± 10.28 nmol/L
same,"Sex Hormone Binding Globulin, Median",[1]; 300 mg/day,19.0 nmol/L
same,"Sex Hormone Binding Globulin, Min",[1]; 300 mg/day,5.6 nmol/L

# Reference: patent US10500166B2, “Methods for the treatment of erectile dysfunction using fispemifene” (QUATRX PHARMACEUTICALS, priority 2007, dated 2019)
